The target in data set [1] is T1, purified human αvβ3 (Homo sapiens, UniProt P05106+P06756).
T1 construct: purchased Chemicon International, Temecula, Calif., USA
Kind of data set: ELISA: competitive inhibition of biotinylated vitronectin binding to immobilized purified integrin αvβ3. The settings on record: for higher binding affinity as compared to monomer 1 (IA): compared to IA 1. The protocol: In vitro Binding Assay. […] Purified integrin αvβ3 protein (Chemicon International, Temecula, Calif., USA) was applied to 96-well polystyrene microtiter plates at 0.1 μg/well. After overnight incubation at 4° C., the plates were washed, and then blocked with milk solution (KPL, Inc. Gaithersburg, Md., USA) at room temperature for 2 hr. The blocking buffer was removed, and the plates were inoculated in quadruplicate with bivalent IAs with a typical starting concentration of 125 nM. Serial dilutions were prepared in the 96-well plates using multichannel pipettes. Biotinylated vitronectin solution (0.1 μg/well) was added to each well as a standard competitor. The plates were incubated at room temperature for 3 h, washed, and the bound vitronectin was detected using NeutrAvidin-HRP conjugate at 0.01 μg/well (Pierce, Rockford, Ill., USA) and LumiGlo® chemiluminescent substrate system (KPL, Inc.). The luminescence was read using a FLUOstar™ OPTIMA Microplate Reader (Durham, N.C., USA). […] (Peptides International, Inc., Louisville, Ky., USA) was also tested using the same method as described above.
Briefly, purified integrin αvβ3 protein (Chemicon International, Temecula, Calif., USA) was applied to 96-well polystyrene microtiter plates for overnight incubation at 4° C. The plates were washed and then blocked with milk solution (KPL, Inc., Gaithersburg, Md., USA) and the plates were inoculated in quadruplicate with multivalent IAs at different concentrations. Biotinylated vitronectin solution was added to each well as a standard competitor. The plates were incubated at room temperature, washed, and the bound vitronectin detected using NeutrAvidin-HRP® conjugate (Pierce, Rockford, Ill., USA) and LumiGlo® chemiluminescent substrate system (KPL, Inc., Gaithersburg, Md., USA). The luminescence was read using a FLUOstar® OPTIMA Microplate Reader (Durham, N.C., USA).
In vitro Binding Affinity Assay. Purified integrin αvβ3 protein (Chemicon International, Temecula, Calif., USA) was applied to 96-well polystyrene microtiter plates at 1 μg/well. After overnight incubation at 4° C., the plates were washed and then blocked with milk solution (KPL, Inc., Gaithersburg, Md., USA) at room temperature for 2 hr. The blocking buffer was removed, and the plates were inoculated in quadruplicate with bivalent IAs with a typical starting concentration of 125 nM. Serial dilutions were prepared in the 96-well plates using multichannel pipettes. Biotinylated vitronectin solution (0.1 μg/well) was added to each well as a standard competitor.
The plates were incubated at room temperature for 3 hr, washed, and the bound vitronectin was detected using NeutrAvidin-HRP conjugate at 0.01 μg/well (Pierce, Rockford, Ill., USA) and LumiGlo® chemiluminescent substrate system (KPL, Inc.). The luminescence was read using a FLUOstar OPTIMA Microplate Reader (Durham, N.C., USA). […] It measured competitive binding of the integrin antagonist and biotinylated human vitronectin for the immobilized receptor αvβ3.
A general note: ELISA stands for enzyme-linked immunosorbent assay.

Data set [2] deals with U-87 xenograft tumors. Put plainly: In vivo and ex vivo NIR fluorescence imaging of U-87 xenograft tumor-bearing mice. The protocol: U-87 MG Xenograft Model, Animal procedures were performed according to approved protocols. Female athymic nude mice (nu/nu), obtained from Charles River Laboratories, Inc. (Cambridge, Mass., USA) at 4-6 weeks of age, were injected subcutaneously in the right rear thigh with 1×10^7 U-87 MG cells suspended in 100 μL of phosphate-buffered saline (PBS). The cancer cells were harvested from sub-confluent cultures with 0.25% trypsin. Trypsinization was stopped with DMEM containing 10% FBS, after which the cells were washed once in serum-free medium and resuspended in PBS. Trypan blue exclusion was performed to ensure >90% cell viability. The tumor bearing mice were subjected to in vivo imaging studies when the tumors reached 0.4-0.6 cm in diameter.
In vivo Fluorescence Imaging of Tumors. ˜3×10^6 U-87 cells were implanted bilaterally in the posterior flanks of immunocompromised (nu/nu) mice and grown to ˜4 to 6 mm in diameter. Imaging was carried out in groups of five mice. After palpable masses were detected, animals were manually restrained and imaging probes were intravenously administered (lateral tail vein) using a 30-Ga needle via aseptic technique. Free Cy5.5 was prepared by dissolving the same Cy5.5NHS ester used for labeling the bivalent IA (GE Healthcare, Piscatway, N.J., USA) in phosphate buffered saline (PBS), pH 7.4 overnight at 4° C. Stock concentration of free Cy5.5 was measured optically using the molar extinction coefficient of 250000M-1 cm-1 using a UV-visible spectrophotometer at the maximum absorbance wavelength (675 nm) as recommended by the manufacturer. The bivalent-IA-Cy5.5 was weighed and confirmed by spectrophotometric measurement. Appropriate dilutions of each probe were made in PBS, pH 7.4, and each was filter sterilized (0.2-μm) immediately prior to use. All animals weighed between 18 and 20 g, and each received 10 nmol of imaging probe (in a total volume of 100 μL). Fluorescence imaging was performed with a small animal-dedicated optical imaging system (Xenogen/Caliper IVIS-200, Mountain View, Calif., USA) under continuous 1.5-2.0% isoflurane delivered through the integrated anesthesia nosecone system. At 2-, 4-, 7-, 24-, and 48-hrs' post-injection, images were acquired with the surface of the tissue of interest (tumor) approximating a perpendicular viewing angle relative to the camera line of sight; this viewing angle was also used for normal tissue selection.
For determining tumor contrast, mean fluorescence intensities of the tumor area (T) defined as radiance (photons/sec/cm2/sr) at the right rear leg of the animal and of the area (N) at the right flank (normal tissue) were calculated by region-of-interest (ROI) analysis using the corresponding photograph of each image acquisition dataset to identify the tumor region. Pre-injection imaging was also performed to determine baseline autofluorescence. For competitive inhibition studies, mice (n=3) were co-injected with 500 nmol bivalent IA and 10 nmol of imaging probe (bivalent-IA-Cy5.5) following the same procedure described above. Free Cy5.5 studies were performed in the same manner following the intravenous injection of 10 nmol. For ex vivo biodistribution imaging, two tumor-bearing mice were imaged 24 hrs post injection of bivalent-IA-Cy5.5 and thereafter euthanized per IACUC protocol (CO2 and cervical dislocation). Tumor and major internal organs (heart, lung, liver, spleen, gastrointestinal tract, and kidneys) were harvested, weighed, and imaged against a black paper background. All image acquisition parameters were as follows: epi-illumination; Cy5.5 Em/Ex; Bin: (HR)4, FOV: 12.9; f2; 0.2 sec.

Data set [3] concerns U-87 MG (ATCC HTB-14) glioblastoma cells over-expressing integrin αvβ3. Kind of data set: Fluorescence microscopy probe binding assay in U-87 cells. It counts as cell-based, human. The note with it: 200 nM, 37° C., 45 min, confocal microscopy. The protocol: Fluorescence Microscopy Studies. […] For fluorescence microscopy studies, 1×10^4 U-87 cells were cultured on 35 mm MatTek glass bottom culture dishes. After 24 hr, cells were washed with PBS and then incubated with bivalent-IA-Cy5.5 (200 nM) at 37° C. for 45 min. Integrin specificity of the probe binding was verified by incubating U-87 cells with and without a blocking dose of the non-fluorescent bivalent IA (20 μmol/L). After the incubation period, the cells were washed three times with ice-cold PBS. The fluorescence signal of the cells was recorded using FluoView® 1000 Laser Scanning Confocal Microscope (Olympus, Center Valley, Pa., USA) under a 40× oil-immersion objective, with laser excitation at 675 nm (Cy5.5). A differential interference contrast image was also recorded so that the origin of fluorescent signals could be confirmed.

The mark [4] stands for this setting: Example 2, PEG-linked ligands, averages of at least three determinations, read-out: In vitro EL1SA IC50.

“Also recorded” adds a separate entry of the source. Like-named read-outs stand apart in the source and are kept apart here.

Take `O=C(NCCS(=O)(=O)N[C@@H](CNC(=O)c1ccc(OCCNC2=NCCCN2)cc1)C(=O)O)OCCOCCOCCOC(=O)NCCS(=O)(=O)N[C@@H](CNC(=O)c1ccc(OCCNC2=NCCCN2)cc1)C(=O)O` [Compound 3]: the IC50 – broadly, the concentration needed to halve the response being measured – in data set [1] (setting [4]) came to 0.16 nM.
With `O=C(NCCS(=O)(=O)N[C@@H](CNC(=O)c1ccc(OCCNC2=NCCCN2)cc1)C(=O)O)OCCOCCOCCOCCOC(=O)NCCS(=O)(=O)N[C@@H](CNC(=O)c1ccc(OCCNC2=NCCCN2)cc1)C(=O)O` [Compound 4], the concentration for half-maximal inhibition (IC50) in data set [1] (setting [4]) is 0.16 nM.
The same measure, in the same setting: in the case of `O=C(NCCS(=O)(=O)N[C@@H](CNC(=O)c1ccc(OCCNC2=NCCCN2)cc1)C(=O)O)OCCOCCOCCOCCOCCOCCOCCOCCOC(=O)NCCS(=O)(=O)N[C@@H](CNC(=O)c1ccc(OCCNC2=NCCCN2)cc1)C(=O)O` [Compound 5] it was 0.16 nM.
On to `CC(C)(CNC(=O)OCCOCCOCCOC(=O)NCC(C)(C)COC(=O)NCCS(=O)(=O)N[C@@H](CNC(=O)c1ccc(OCCNC2=NCCCN2)cc1)C(=O)O)COC(=O)NCCS(=O)(=O)N[C@@H](CNC(=O)c1ccc(OCCNC2=NCCCN2)cc1)C(=O)O` [Compound 6], for which the IC50 in data set [1] (setting [4]) came to 0.09 nM. The “higher affinity as compared to the corresponding monomer 2” value in data set [1] (compared to IAC 2) was about 23 fold.
For the compound `CC(C)(CNC(=O)OCCOCCOCCOCCOC(=O)NCC(C)(C)COC(=O)NCCS(=O)(=O)N[C@@H](CNC(=O)c1ccc(OCCNC2=NCCCN2)cc1)C(=O)O)COC(=O)NCCS(=O)(=O)N[C@@H](CNC(=O)c1ccc(OCCNC2=NCCCN2)cc1)C(=O)O` [Compound 7], the IC50 in data set [1] (setting [4]) came out at 0.11 nM.
With `CC(C)(CNC(=O)OCCOCCOCCOCCOCCOCCOCCOCCOC(=O)NCC(C)(C)COC(=O)NCCS(=O)(=O)NC(CNC(=O)c1ccc(OCCNC2=NCCCN2)cc1)C(=O)O)COC(=O)NCCS(=O)(=O)NC(CNC(=O)c1ccc(OCCNC2=NCCCN2)cc1)C(=O)O` (stereo not drawn) [Compound 8], the IC50 in data set [1] (setting [4]) amounted to 0.32 nM.
As for `CC(C)(CN)COC(=O)NCCS(=O)(=O)N[C@@H](CNC(=O)c1ccc(OCCNC2=NCCCN2)cc1)C(=O)O` [IAC 2], in data set [1] (setting [4]), the IC50 was found to be 2.07 nM. The “higher binding affinity as compared to monomer 1 (IA)” value in data set [1] is “about 10 fold”; in data set [1] (listed as 2) it was 10 fold.
For the compound `CC[N+]1=C(/C=C/C=C/C=C2/N(CCCCCC(=O)NC(CCCCCC(=O)NCCS(=O)(=O)N[C@@H](CNC(=O)c3ccc(OCCNC4=NCCCN4)cc3)C(=O)O)C(=O)NCCS(=O)(=O)N[C@@H](CNC(=O)c3ccc(OCCNC4=NCCCN4)cc3)C(=O)O)c3ccc4c(S(=O)(=O)O)cc(S(=O)(=O)O)cc4c3C2(C)C)C(C)(C)c2c1ccc1c(S(=O)(=O)[O-])cc(S(=O)(=O)O)cc21` (stereo partly drawn) [bivalent-IA-Cy5.5], the “tumor fluorescence signal / accumulation” value in data set [2] (10 nmol i.v.) was “increased signal in tumor sites at 7, 24, and 48 hrs; also recorded: modest accumulation at the tumor site”. Also, in data set [2] (10 nmol i.v., plateau at 24 hr, n=5), the “tumor-to-normal tissue (T/N) fluorescence ratio, average maximum” value is recorded as about 1.84. Further, in data set [2] (24 hrs post-injection, two animals), the “ex vivo signal per mass of tissue (biodistribution)” value is listed as “The highest signal per mass of tissue was observed for the tumor”. In addition, in data set [2] (inferred from fluorescence), the “blood-pool / circulation clearance rate” value is listed as “relatively slow blood-pool clearance rate; also recorded: relatively slow clearance of the probe from the circulation”. The route of clearance result in data set [2] (inferred from kidney fluorescence signal, 24 hrs) is recorded as “mainly renal clearance”. For the same compound, in data set [2] (inferred from minimal liver signal, 24 hrs), the hepatic metabolism result is listed as “low hepatic metabolism”. Moreover, the IC50 in data set [1] (Example 1 bivalent IA study, FIG. 4, read-out: IC50 of vitronectin binding to αvβ3 (ELISA)) came out at 0.13 ± 0.02 nM. Further, the “endocytosis / binding of probe in U-87 cells” value in data set [3] was “endocytosis of the imaging probes; also recorded: integrin-mediated endocytosis”; in data set [3] (listed as Bivalent-IA-Cy5.5 conjugate), “Receptor-mediated endocytosis was observed”; in data set [3] (listed as bivalent-IA-Cy5.5 conjugate), “integrin-mediated endocytosis”.
On to `CCN1\C(=C/C=C/C=C/C2=[N+](CCCCCC(=O)O)c3ccc4c(S(=O)(=O)O)cc(S(=O)(=O)O)cc4c3C2(C)C)C(C)(C)c2c1ccc1c(S(=O)(=O)[O-])cc(S(=O)(=O)O)cc21` [free Cy5.5, reference compound], for which, in data set [2] (10 nmol i.v.), the “tumor fluorescence signal / accumulation” value is on record as “slightly higher than the background but is lower than that achieved with the bivalent-IA-Cy5.5”.

(Values after patent US9833520B2, “Labeled, non-peptidic, multivalent integrin antagonist compounds; methods for synthesis and uses thereof” (The Methodist Hospital Research Institute, priority 2011, dated 2017).)
